This passage reports MIC results from patent US20170260178A1 (SPERO GYRASE, INC., priority 2012, published 2017).

The test system of one assay is S. aureus (ATCC 29213). Kind of assay: Bacterial assay: MIC against S. aureus. The conditions noted are these: Staphylococcus aureus, ATCC29213, read-out: minimal inhibitory concentration (MIC). The assay is classed as cell-based, Staphylococcus aureus.
The subject of the next assay is S. pyogenes (ATCC 51339). Kind of assay: Bacterial assay: MIC against S. pyogenes. The conditions noted are these: Streptococcus pyogenes, ATCC51339, read-out: minimal inhibitory concentration (MIC). The assay is classed as cell-based, Streptococcus pyogenes.
Assay [1] deals with H. influenzae (ATCC 49247). Kind of assay: Bacterial assay: MIC against H. influenzae. The assay is classed as cell-based. The conditions noted are these: Haemophilus influenzae, ATCC49247; H. influenzae ATCC 49247; read-out: minimal inhibitory concentration (MIC).

Take `CCNC(=O)Nc1nc2cc(-c3cnc(C(O)CN4CCOCC4)nc3)cc(-c3ccccn3)c2s1` (stereo not drawn) [Compound 81, 1-ethyl-3-[5-[2-(1-hydroxy-2-morpholino-ethyl)pyrimidin-5-yl]-7-(2-pyridyl)-1,3-benzothiazol-2-yl]urea]: the MIC in the assay on S. aureus (ATCC 29213) was at most 1 µg/mL; in the assay with S. pyogenes (ATCC 51339), at most 1 µg/mL; in assay [1], at most 2 µg/mL.

Consider `CCNC(=O)Nc1nc2cc(-c3cnc(C(C)O)nc3)cc(-c3cc(OCCOC)ccn3)c2s1` (stereo not drawn) [Compound 92, 1-ethyl-3-[5-[2-(1-hydroxyethyl)pyrimidin-5-yl]-7-[4-(2-methoxyethoxy)-2-pyridyl]-1,3-benzothiazol-2-yl]urea], for which the MIC was at most 1 µg/mL in the assay with S. aureus (ATCC 29213), at most 1 µg/mL in the assay with S. pyogenes (ATCC 51339) and at most 2 µg/mL in assay [1].

`CCNC(=O)Nc1nc2cc(-c3cnc(C4(O)CCOCC4)nc3)cc(-c3ccccn3)c2s1` [Compound 111, 1-ethyl-3-[5-[2-(4-hydroxytetrahydropyran-4-yl)pyrimidin-5-yl]-7-(2-pyridyl)-1,3-benzothiazol-2-yl]urea]: the MIC was at most 1 µg/mL in the assay with S. aureus (ATCC 29213), at most 1 µg/mL with S. pyogenes (ATCC 51339) and at most 2 µg/mL in assay [1].

Regarding `CCNC(=O)Nc1nc2cc(-c3ccc(C(C)O)nc3)cc(-c3ccccn3)c2s1` (stereo not drawn) [Compound 95, 1-ethyl-3-[5-[6-(1-hydroxyethyl)-3-pyridyl]-7-(2-pyridyl)-1,3-benzothiazol-2-yl]urea], the results for the MIC (with S. aureus (ATCC 29213); in the assay with S. pyogenes (ATCC 51339); in assay [1]) were at most 1 µg/mL, at most 1 µg/mL and at most 2 µg/mL, respectively.

For the molecule `CCNC(=O)Nc1nc2cc(-c3cnc(C(C)O)nc3)cc(-c3nccc(OC)c3F)c2s1` (stereo not drawn) [Compound 178, 1-ethyl-3-[7-(3-fluoro-4-methoxy-2-pyridyl)-5-[2-[1-hydroxyethyl]pyrimidin-5-yl]-1,3-benzothiazol-2-yl]urea], the MIC in the assay on S. aureus (ATCC 29213) is at most 1 µg/mL; in the assay with S. pyogenes (ATCC 51339) it was at most 1 µg/mL; in assay [1] it was at most 2 µg/mL.

Take `CCNC(=O)Nc1nc2cc(-c3ccc(C(O)C(F)(F)F)nc3)cc(-c3cc(OCCN4CCOCC4)ccn3)c2s1` (stereo not drawn) [Compound 116, 1-ethyl-3-[7-[4-(2-morpholinoethoxy)-2-pyridyl]-5-[6-(2,2,2-trifluoro-1-hydroxy-ethyl)-3-pyridyl]-1,3-benzothiazol-2-yl]urea]: the results for the MIC (in the assay with S. aureus (ATCC 29213); in the assay with S. pyogenes (ATCC 51339); in assay [1]) were at most 1 µg/mL, at most 1 µg/mL and at most 2 µg/mL, respectively.

Take `CCNC(=O)Nc1nc2cc(-c3cnc(C(C)(C)O)nc3)cc(-c3cc(CN4CC[C@H](F)C4)ccn3)c2s1` [Compound 35, 1-ethyl-3-[7-[4-[[(3S)-3-fluoropyrrolidin-1-yl]methyl]-2-pyridyl]-5-[2-(1-hydroxy-1-methyl-ethyl)pyrimidin-5-yl]-1,3-benzothiazol-2-yl]urea]: the MIC with S. aureus (ATCC 29213) is at most 1 µg/mL; in the assay on S. pyogenes (ATCC 51339), at most 1 µg/mL; in assay [1], at most 2 µg/mL.

On to `[2H]C1([2H])OC([2H])([2H])C([2H])([2H])N(Cc2ccnc(-c3cc(-c4cnc(C(C)O)nc4)cc4nc(NC(=O)NCC)sc34)c2)C1([2H])[2H]` (stereo not drawn) [Compound 70, 1-ethyl-3-[5-[2-(1-hydroxyethyl)pyrimidin-5-yl]-7-[4-[(2,2,3,3,5,5,6,6-octadeuteriomorpholin-4-yl)methyl]-2-pyridyl]-1,3-benzothiazol-2-yl]urea], for which the MIC in the assay on S. aureus (ATCC 29213) was at most 1 µg/mL; in the assay on S. pyogenes (ATCC 51339), at most 1 µg/mL; in assay [1], at most 2 µg/mL.

As to `CCNC(=O)Nc1nc2cc(-c3cnc([C@@H](O)[C@H](O)C(F)(F)F)nc3)cc(-c3ccccn3)c2s1` (relative stereo) [Compound 131, 1-ethyl-3-[7-(2-pyridyl)-5-[2-[(1R*,2S*)-3,3,3-trifluoro-1,2-dihydroxy-propyl]pyrimidin-5-yl]-1,3-benzothiazol-2-yl]urea], the MIC with S. aureus (ATCC 29213) is at most 1 µg/mL; in the assay with S. pyogenes (ATCC 51339), at most 1 µg/mL; in assay [1], at most 2 µg/mL.

For the molecule `CCNC(=O)Nc1nc2cc(-c3cnc(C(C)(C)O)nc3)cc(-c3cc(CN4CC(C)(OC)C4)ccn3)c2s1` [Compound 114, 1-ethyl-3-[5-[2-(1-hydroxy-1-methyl-ethyl)pyrimidin-5-yl]-7-[4-[(3-methoxy-3-methyl-azetidin-1-yl)methyl]-2-pyridyl]-1,3-benzothiazol-2-yl]urea], the MIC was at most 1 µg/mL in the assay on S. aureus (ATCC 29213), at most 1 µg/mL with S. pyogenes (ATCC 51339) and at most 2 µg/mL in assay [1].

In the case of `CCNC(=O)Nc1nc2cc(-c3cnc(C(C)(C)O)nc3)cc(-c3cc(CNC4CC4)ccn3)c2s1` [Compound 53, 1-[7-[4-[(cyclopropylamino)methyl]-2-pyridyl]-5-[2-(1-hydroxy-1-methyl-ethyl)pyrimidin-5-yl]-1,3-benzothiazol-2-yl]-3-ethyl-urea], the MIC was at most 1 µg/mL in the assay with S. aureus (ATCC 29213), at most 1 µg/mL in the assay on S. pyogenes (ATCC 51339) and at most 2 µg/mL in assay [1].

On to `CCNC(=O)Nc1nc2cc(-c3cnc(C(C)(C)O)nc3)cc(-c3cc(CN4CC(OC)C4)ccn3)c2s1` [Compound 31, 1-ethyl-3-[5-[2-(1-hydroxy-1-methyl-ethyl)pyrimidin-5-yl]-7-[4-[(3-methoxyazetidin-1-yl)methyl]-2-pyridyl]-1,3-benzothiazol-2-yl]urea], for which the results for the MIC (with S. aureus (ATCC 29213); in the assay with S. pyogenes (ATCC 51339); in assay [1]) were at most 1 µg/mL, at most 1 µg/mL and at most 2 µg/mL, respectively.

Regarding `CCNC(=O)Nc1nc2cc(-c3cnc(C4(O)CCCC4)nc3)cc(-c3ccccn3)c2s1` [Compound 119, 1-ethyl-3-[5-[2-(1-hydroxycyclopentyl)pyrimidin-5-yl]-7-(2-pyridyl)-1,3-benzothiazol-2-yl]urea], the figures for the MIC (in the assay on S. aureus (ATCC 29213); in the assay with S. pyogenes (ATCC 51339); in assay [1]) were at most 1 µg/mL, at most 1 µg/mL and at most 2 µg/mL, respectively.

For `CCNC(=O)Nc1nc2cc(-c3cnc(C4(O)CCSCC4)nc3)cc(-c3ccccn3)c2s1` [Compound 127, 1-ethyl-3-[5-[2-(4-hydroxytetrahydrothiopyran-4-yl)pyrimidin-5-yl]-7-(2-pyridyl)-1,3-benzothiazol-2-yl]urea], the MIC in the assay with S. aureus (ATCC 29213) was at most 1 µg/mL; in the assay on S. pyogenes (ATCC 51339), at most 1 µg/mL; in assay [1], at most 2 µg/mL.

For the molecule `CCNC(=O)Nc1nc2cc(-c3cnc(C(C)O)nc3)cc(-c3cc(OCC4CCCO4)ccn3)c2s1` (stereo not drawn) [Compound 104, 1-ethyl-3-[5-[2-(1-hydroxyethyl)pyrimidin-5-yl]-7-[4-(tetrahydrofuran-2-ylmethoxy)-2-pyridyl]-1,3-benzothiazol-2-yl]urea], the values for the MIC (with S. aureus (ATCC 29213); with S. pyogenes (ATCC 51339); in assay [1]) were at most 1 µg/mL, at most 1 µg/mL and at most 2 µg/mL, respectively.

As for `CCNC(=O)Nc1nc2cc(-c3cnc(C(C)(C)O)nc3)cc(-c3ccc(OCCN4CCOCC4)cn3)c2s1` [Compound 56, 1-ethyl-3-[5-[2-(1-hydroxy-1-methyl-ethyl)pyrimidin-5-yl]-7-[5-(2-morpholinoethoxy)-2-pyridyl]-1,3-benzothiazol-2-yl]urea], the MIC in the assay on S. aureus (ATCC 29213) is at most 1 µg/mL; in the assay on S. pyogenes (ATCC 51339) it was at most 1 µg/mL; in assay [1] it was at most 2 µg/mL.

Turning to `CCNC(=O)Nc1nc2cc(-c3cnc(C(C)O)nc3)cc(-c3cc(CN4CCOCC4)ccn3)c2s1` (stereo not drawn) [Compound 55, 1-ethyl-3-[5-[2-(1-hydroxyethyl)pyrimidin-5-yl]-7-[4-(morpholinomethyl)-2-pyridyl]-1,3-benzothiazol-2-yl]urea], the MIC in the assay on S. aureus (ATCC 29213) is at most 1 µg/mL; with S. pyogenes (ATCC 51339), at most 1 µg/mL; in assay [1], at most 2 µg/mL.

Regarding `CCNC(=O)Nc1nc2cc(-c3cnc(C(C)O)nc3)cc(-c3cc(CSC)ccn3)c2s1` (stereo not drawn) [Compound 15, 1-ethyl-3-[5-[2-(1-hydroxyethyl)pyrimidin-5-yl]-7-[4-(methylsulfanylmethyl)-2-pyridyl]-1,3-benzothiazol-2-yl]urea], the MIC in the assay on S. aureus (ATCC 29213) is at most 1 µg/mL; with S. pyogenes (ATCC 51339), at most 1 µg/mL; in assay [1] it was at most 2 µg/mL.

`CCNC(=O)Nc1nc2cc(-c3cnc([C@@H](O)[C@H](C)O)nc3)cc(-c3ccccn3)c2s1` (relative stereo) [Compound 7, 1-[5-[2-[(1S*,2R*)-1,2-dihydroxypropyl]pyrimidin-5-yl]-7-(2-pyridyl)-1,3-benzothiazol-2-yl]-3-ethyl-urea]: the values for the MIC (in the assay on S. aureus (ATCC 29213); with S. pyogenes (ATCC 51339); in assay [1]) were at most 1 µg/mL, at most 1 µg/mL and at most 2 µg/mL, respectively.

As to `CCNC(=O)Nc1nc2cc(-c3cnc(C4(O)CCS(=O)(=O)CC4)nc3)cc(-c3ccccn3)c2s1` [Compound 173, 1-ethyl-3-[5-[2-(4-hydroxy-1,1-dioxo-thian-4-yl)pyrimidin-5-yl]-7-(2-pyridyl)-1,3-benzothiazol-2-yl]urea], the MIC was at most 1 µg/mL in the assay on S. aureus (ATCC 29213), at most 1 µg/mL in the assay on S. pyogenes (ATCC 51339) and at most 2 µg/mL in assay [1].

On to `CCNC(=O)Nc1nc2cc(-c3cnc(C(C)(C)O)nc3)cc(-c3cc(CN4CC(OCC)C4)ccn3)c2s1` [Compound 175, 1-[7-[4-[(3-ethoxyazetidin-1-yl)methyl]-2-pyridyl]-5-[2-(1-hydroxy-1-methyl-ethyl)pyrimidin-5-yl]-1,3-benzothiazol-2-yl]-3-ethyl-urea], for which the MIC with S. aureus (ATCC 29213) was at most 1 µg/mL; with S. pyogenes (ATCC 51339) it was at most 1 µg/mL; in assay [1], at most 2 µg/mL.

As to `CCNC(=O)Nc1nc2cc(-c3cnc([C@H](C)OC(=O)[C@H](N)C(C)C)nc3)cc(-c3ccccn3)c2s1` [Compound 63, [(1S)-1-[5-[2-(ethylcarbamoylamino)-7-(2-pyridyl)-1,3-benzothiazol-5-yl]pyrimidin-2-yl]ethyl] (2R)-2-amino-3-methyl-butanoate], the MIC in the assay with S. aureus (ATCC 29213) was at most 1 µg/mL; in the assay with S. pyogenes (ATCC 51339), at most 1 µg/mL; in assay [1], at most 2 µg/mL.

As for `CCNC(=O)Nc1nc2cc(-c3cnc(C(C)O)nc3)cc(-c3cc(CN4C[C@@H](C)O[C@@H](C)C4)ccn3)c2s1` (stereo partly drawn) [Compound 69, 1-[7-[4-[[(2R,6S)-2,6-dimethylmorpholin-4-yl]methyl]-2-pyridyl]-5-[2-(1-hydroxyethyl)pyrimidin-5-yl]-1,3-benzothiazol-2-yl]-3-ethyl-urea], the MIC was at most 1 µg/mL in the assay with S. aureus (ATCC 29213), at most 1 µg/mL with S. pyogenes (ATCC 51339) and at most 2 µg/mL in assay [1].

For the molecule `CCNC(=O)Nc1nc2cc(-c3cnc(C(C)(C)O)nc3)cc(-c3cc(OCCOC)ccn3)c2s1` [Compound 80, 1-ethyl-3-[5-[2-(1-hydroxy-1-methyl-ethyl)pyrimidin-5-yl]-7-[4-(2-methoxyethoxy)-2-pyridyl]-1,3-benzothiazol-2-yl]urea], the MIC in the assay on S. aureus (ATCC 29213) was at most 1 µg/mL; in the assay on S. pyogenes (ATCC 51339) it was at most 1 µg/mL; in assay [1], at most 2 µg/mL.
